The text below walks through data of ChEMBL document CHEMBL4725416, “Structure-Based Discovery of Novel Ligands for the Orexin 2 Receptor” (J Med Chem, 2020).

Each structure is given as a SMILES string. Calls of active or inactive are those of the source. The rule behind the calls is not given here. Some results are limits rather than exact numbers.

Common to all, as to type: cell-based
Assay [1] deals with T1, Orexin/Hypocretin receptor type 1 (Homo sapiens, UniProt O43613).
T1 sequence (O43613 whole entry): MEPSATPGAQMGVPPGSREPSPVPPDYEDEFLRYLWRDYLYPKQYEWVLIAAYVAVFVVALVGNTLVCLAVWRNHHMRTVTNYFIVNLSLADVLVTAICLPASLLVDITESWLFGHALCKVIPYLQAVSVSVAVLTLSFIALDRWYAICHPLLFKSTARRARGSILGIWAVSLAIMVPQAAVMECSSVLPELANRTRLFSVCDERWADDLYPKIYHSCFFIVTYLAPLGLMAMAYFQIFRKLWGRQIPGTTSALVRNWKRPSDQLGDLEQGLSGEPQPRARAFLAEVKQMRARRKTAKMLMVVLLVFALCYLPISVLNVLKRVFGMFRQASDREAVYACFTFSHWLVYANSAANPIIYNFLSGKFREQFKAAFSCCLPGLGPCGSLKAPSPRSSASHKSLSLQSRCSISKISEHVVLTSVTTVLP
The assay is described as follows: (§1) Displacement of [3H]-[…] from human orexin 1 receptor expressed in CHO cells incubated for 2 hrs by whole cell radioligand binding assay. A general note: Displacement assays read how much labelled ligand stays bound in the presence of the test substance.

The nature of assay [2]: (§2) Displacement of [3H]-EMPA from human orexin 2 receptor expressed in CHO cells incubated for 2 hrs by whole cell radioligand binding assay. Particulars: for IC50: CHO.
Assay [3] concerns the target T2, Orexin/Hypocretin receptor type 1 (Homo sapiens) (UniProt O43613).
T2 sequence (whole entry): T1 sequence (O43613 whole entry)
The assay is described as §1.

For another assay, the species on record is Homo sapiens. The assay is described as §2.

Take `O=C1Nc2cc(C(=O)N3CCN(Cc4ccc5c(c4)OCO5)CC3)ccc2N2CCCC[C@@H]12`: the IC50 in assay [1] and in assay [2] was above 100 µM each time.
For the molecule `CN(Cc1[nH]cc[n+]1Cc1ccccc1)C(=O)c1cccc2cc[nH][n+]12`, the IC50 – broadly, the concentration that inhibits the measured activity by half – in assay [2] is above 100 µM.
As for `COc1ccc2cc(CN(C)C(=O)COC(=O)c3c(F)cccc3F)ccc2c1`, in assay [1], the IC50 was above 100 µM.
For `COc1cccc(-c2nc(C(=O)OCc3cccnc3)c(C)[nH]2)c1`, the affinity in assay [1], expressed as Ki, was 14.8 µM. Moreover, the pKi (in general, −log10 of the Ki, conventionally taken in molar units) in assay [2] came out at 4.64.
Consider `COc1cc(=O)n2c(c1C(=O)N(C)Cc1nonc1C)CCN(C(=O)C1(c3ccccc3)CC1)CC2`, for which the IC50 in assay [1] and in assay [2] was above 100 µM throughout.
For `Cc1nc(-c2cc(C)n(CC(=O)N3CCC[C@H]3c3ccncc3)c2C)cs1`, the pKi entry in assay [3] is “inactive”.
In assay [2], `O=C(/C=C/c1cccc(F)c1)N1CCOc2c(cc(-c3cccnc3)cc2OC[C@H]2CCCCO2)C1` had an IC50 above 100 µM.
As to `CN(Cc1[nH]cc[n+]1C)C(=O)C[C@H]1CN(Cc2ccccc2)CCO1`, in assay [1], the IC50 was above 100 µM. In addition, the pKi entry in the assay filed under Homo sapiens was “inactive”.
Regarding `O=S(=O)(c1cc(F)cc(F)c1)N1CCN(Cc2csc(-c3ccco3)n2)CC1`, the IC50 in assay [1] and in assay [2] was above 100 µM each time.
With `CN1C(=O)c2ccc(C(=O)OCCCn3c(=O)[nH]c4ccccc43)cc2C1=O`, the IC50 in assay [1] and in assay [2] was above 100 µM in each case.
In the case of `O=C(c1cc(S(=O)(=O)N2CCOCC2)ccc1Cl)N1CCn2c1nc1ccccc12`, the IC50 in assay [1] and in assay [2] was above 100 µM each time.
As for `Cc1[nH]c2ccc(C(=O)N3CCN(Cc4ccc5c(c4)OCO5)CC3)cc2c1C`, the IC50 in assay [1] and in assay [2] was above 100 µM throughout.
In the case of `CN(CCc1cccc2ccccc12)C(=O)c1c[nH]c(=O)c(Cl)c1`, the Ki (usually a dissociation constant, usually derived from enzyme kinetics or from competition with a known ligand) in assay [1] is 14.8 µM. Moreover, the negative-log Ki (pKi) in assay [2] stood at 4.89.
Molecule `O=C1c2ccccc2C(=O)N1CCc1nc(-c2cnccn2)no1` registered an IC50 in assay [2] above 100 µM.
In turn, `O=C1N=C(O)/C(=C\c2ccccc2OCc2ccccc2F)C(=O)N1c1ccc2c(c1)OCO2` came in with an IC50 in assay [1] above 100 µM.
With `Cc1cccc(C)c1NC(=O)CCCN1C(=O)c2cccnc2C1=O`, in assay [1], the inhibition constant (Ki) was 33.9 µM. The negative-log Ki (pKi) in assay [2] was 4.56.
On to `Cc1ccc(-n2nccn2)c(C(=O)N2CCN(c3nc4cc(Cl)ccc4o3)CC[C@H]2C)c1` [SUVOREXANT], for which the pKi in assay [2] is on record as 8.53.
Take `Cc1ccc2c(C)c(C(=O)N3CCN(Cc4ccccn4)CC3)oc2c1C`: the IC50 in assay [1] and in assay [2] was above 100 µM throughout.
Regarding `CN(C)S(=O)(=O)c1cccc(C(=O)N(CCc2ccccc2)c2nc3ccccc3s2)c1`, the IC50 in assay [2] was above 100 µM.
In the case of `Cc1ccc([C@H](CCO)n2cc(-c3ccnc4ccccc34)nn2)cc1`, the IC50 in assay [1] and in assay [2] was above 100 µM in each case.
Regarding `CCN(Cc1cccnc1)C(=O)CN(c1ccc(OC)nc1)S(=O)(=O)c1ccccc1C`, in assay [2], the pKi was found to be 8.17.
For `c1ccc(-c2n[nH]cc2-c2nc3c(cnn3Cc3ccncc3)[nH]2)cc1`, the affinity in assay [1] corresponds to a Ki of 24.5 µM. The molecule further registered a pKi in assay [2] of 4.82.
As to `COc1cccc(-c2nc([C@@H]3CC(=O)N(Cc4ccccc4)C3)no2)c1`, the IC50 in assay [1] and in assay [2] was above 100 µM each time.
On to `CCC(=O)N1CCCN([C@@H](C)C(=O)Nc2ccccc2C(C)=O)CC1`, for which, in assay [2], the IC50 was above 100 µM.
Consider `O=C(c1ccc(OCc2cn3ccccc3n2)cc1)N1CCC[C@@H]1c1ccc2c(c1)OCCO2`, for which the IC50 in assay [1] and in assay [2] was above 100 µM throughout.
`O=C(CCCn1nnc2ccccc2c1=O)NC1Cc2ccccc2C1`: the IC50 in assay [1] is above 100 µM. For the same molecule, the negative-log Ki (pKi) in assay [2] worked out at 4.4.
Take `Cc1cc([C@@H]2CCCCN2C(=O)c2ccc(-c3cc[nH]n3)cc2)no1`: the IC50 in assay [1] and in assay [2] was above 100 µM each time.
The molecule `Cn1c(-c2ccccc2)c(C(=O)COC(=O)c2ccc3c(=O)n4c(nc3c2)CCC4)c2ccccc21` displayed an IC50 in assay [1] above 100 µM. In the assay filed under Homo sapiens, the pKi entry was “inactive”.
Turning to `O=C(c1ccccc1)[C@H]1CCCN(C(=O)CCc2nc(-c3ccco3)no2)C1`, the IC50 in assay [1] was above 100 µM.
For `Fc1ccccc1COc1cccc(CNCc2ccccn2)c1`, the IC50 in assay [1] was above 100 µM. For the same molecule, the pKi in assay [2] came out at 4.28.
The molecule `Cc1ccc(C(=O)N2CCN(Cc3nnc(-c4ccco4)o3)CC2)cc1F` yielded an IC50 in assay [2] above 100 µM.
For the molecule `Cc1nn(-c2ccccc2)c(N2CCCC2)c1/C=N/n1cnc2c(cnn2-c2ccccc2)c1=O`, the IC50 in assay [1] and in assay [2] was above 100 µM each time.
In assay [2], `CN(Cc1[nH]cc[n+]1C)C(=O)CCCc1c[nH]c2ccccc12` registered an IC50 above 100 µM.
With `COc1cc(=O)n2c(c1C(=O)N(C)[C@H](C)c1ccco1)CCN(C(=O)C1(c3ccccc3)CC1)CC2`, the IC50 in assay [1] and in assay [2] was above 100 µM in each case.
On to `O=C1CCCN1c1cccc(C(=O)N(Cc2ccc(F)cc2)C2CC2)c1`, for which the concentration for half-maximal inhibition (IC50) in assay [2] is above 100 µM.
Same read-out and setting: next, `O=C(Cc1ccc(Cl)cc1)N1CCC(c2noc(-c3ccccn3)n2)CC1`: above 100 µM.
As for `Cc1nc(/C=C/C(=O)Oc2ccc3c(=O)c(-c4c(F)cccc4Cl)c(C)oc3c2)cs1`, the IC50 in assay [1] and in assay [2] was above 100 µM in each case.
For `O=C1/C(=C/c2ccc(N3CCOCC3)cc2)c2ccccc2N1c1ccccc1`, in assay [1], affinity was put at a Ki of 17.8 µM.
`Cc1nc(-c2ncccn2)sc1C(=O)OCCn1c(C)nc2ccccc21`: the IC50 in assay [2] is above 100 µM.
On the same count and under the same terms, next, `COc1cccc(CN2CC3(CCN(Cc4nccs4)CC3)CC2=O)c1`: above 100 µM.
Molecule `Cc1nc(C(=O)N2CCC[C@H]2Cc2nnc(-c3ccccc3)o2)c(-c2ccccc2F)s1` showed a Ki in assay [1] of 0.00389 µM. The pKi in assay [2] came to 6.7.
For the molecule `Cc1nc(-c2ccc(Cl)c(S(=O)(=O)N3CCC[C@@H](C(=O)N4CCc5ccccc54)C3)c2)no1`, the IC50 in assay [1] and in assay [2] was above 100 µM throughout.
Take `CC(=O)N1N=C(c2cn(C(C)=O)c3ccccc23)O[C@@H]1c1cccnc1`: the IC50 in assay [1] and in assay [2] was above 100 µM throughout.
As to `O=S(=O)(c1ccc2c(c1)OCCO2)N1CCN(Cc2nc(-c3ccco3)cs2)CC1`, the IC50 in assay [1] was above 100 µM. In addition, the pKi entry in the assay filed under Homo sapiens was “inactive”.
On to `Cc1ccc(C(=O)[C@H](C)Oc2cccc(N3C(=O)C4C5C=CC(C5)C4C3=O)c2)cc1` (stereo not given in full), for which the IC50 in assay [1] and in assay [2] was above 100 µM each time.
For `O=C(c1cnc(-c2ccccc2)s1)N1CCC[C@H]1c1ccncc1`, the IC50 in assay [1] and in assay [2] was above 100 µM each time.
Turning to `COc1ccc2c(c1)c(CC(=O)NCc1ccccn1)c(C)n2C(=O)c1ccc(Cl)cc1`, the 50% inhibitory concentration (IC50) in assay [1] and in assay [2] was above 5 µM each time.
With `O=C(c1cc2c(s1)-c1ccccc1CC2)N1CCN(Cc2cc(=O)n3ccsc3n2)CC1`, the concentration for half-maximal inhibition (IC50) in assay [1] and in assay [2] was above 100 µM in each case.
Turning to `C[C@@H]1CN(c2cccc(Cl)c2)C(=O)CN1C(=O)c1cccc2ccccc12`, the IC50 in assay [1] and in assay [2] was above 100 µM each time.
In turn, `CC1(C)OC[C@H](NC(=O)Nc2ccc(Br)cc2Br)[C@H](c2ccccc2)O1` had a Ki in assay [1] of 1.35 µM. Also, the pKi in assay [2] amounted to 8.18.
Consider `O=C(CCC(=O)c1ccc2c(c1)OCCO2)Nc1cccc(C#Cc2ccccn2)c1`, for which the half-maximal inhibitory concentration (IC50) in assay [1] and in assay [2] was above 100 µM in each case.
In assay [1], `Cc1nc(COc2ccc(C(=O)N3CCC[C@@H]3c3ccc4c(c3)OCCO4)cc2)cs1` showed a 50% inhibitory concentration (IC50) above 100 µM.
